Where two headings read alike, the source gives them in different places. Marks after values point to notes of the source that are not given here.
Assays:
[1] = tested on: mouse bone marrow polychromatic erythrocytes; settings: 50 mg/kg•bw, positive control; for Number of micronucleus: 5000 cells examined; for Micronucleus rate (‰): P<0.01 vs negative control
Description: Test animals: The healthy Kunming mice provided by the Experimental Animal Center of the National Institute for the Control of Pharmaceutical and Biological Products are selected. • 3. Mouse bone marrow polychromatic erythrocyte micronucleus assay The assay was carried out via oral gavage and the administration was performed twice at intervals of 24 hr. 50 mice weighing 25-30 g are randomly divided into 5 groups according to body weight, 10 in each group, half male and half female. […] The doses of the pharmaceutical product for treating ankylosing spondylitis for combined immunodeficiency according to the present invention are 2.50, 5.00, and 10.00 g/kg•bw, respectively, which were adjusted to the desired concentration with distilled water. The animals were sacrificed by cervical dislocation six hours after the last administration of the pharmaceutical product for treating ankylosing spondylitis for combined immunodeficiency according to the present invention. The bone marrow of sternum was diluted with calf serum, smeared, fixed in methanol, and stained with Giemsa. Under the light microscope, 1000 polychromatic erythrocytes (PRC) were measured per animal, and the incidence of micronucleus was determined by the permillage of micronucleus-containing PRC and statistical process is performed.

male mice = settings: 40 mg/kg•bw, positive control
Description: Sperm abnormality assay in mice 50 sexually mature male mice weighing 30-35 g is randomly divided into 5 groups. […] The doses of the pharmaceutical product for treating ankylosing spondylitis for combined immunodeficiency according to the present invention is 1.25, 2.50, and 5.00 g/kg•bw, respectively, which were adjusted to the desired concentration with distilled water. The mice were administered via oral gavage once a day for 5 days, and the animals were sacrificed 30 days after the last gavage. The epididymis is sectioned and stained with eosin. Five animals were measured in each group and 1000 spermatozoa with intact structural were measured per animal, by which the incidence of sperm abnormality (in percentage) was calculated and statistical process is performed. […] Table 3 Statistical results of sperm abnormality assay in mice

[2] = tested on: patients with ankylosing spondylitis; experiment: Clinical trial in patients with ankylosing spondylitis; type: in vivo, human; settings: for Cure / Effective / Improved / Ineffective / excellence / upturn: 100 patients per group
Description: Clinical trials were performed in patients with ankylosing spondylitis. The criteria for inclusion are as follows: • (1) The New York Standard for Ankylosing Spondylitis revised in 1984 is met. • (2) The diagnostic criteria for the "renal deficiency and cold syndrome" of Ankylosing Spondylitis in Traditional Chinese Medicine is met. It is obtained by reference to the "Guidelines for Clinical Research of New Pharmaceutical products for Treating Arthralgia" and combined with the clinical experience of Professor Jiao Shude and Professor Yan Xiaoping. […] The five criteria for IBP are: age of onset <40 years old; insidious onset; improvement after exercise; no improvement after rest; and nocturnal pain (improvement after getting up). If the patient meets 4 of them, he or she can be confirmed to have IBP (sensitivity 77.0%, specificity 91.7%). […] Treatment method: a randomized control method was used. There are 100 patients in the test group, 100 patients in the control group 1, and 100 patients in the control group 2. […] Control group 1: the patients were orally administrated with loxoprofen sodium from Sankyo Co. Ltd., Japan twice a day in the morning and evening, and 3 months is a course of treatment. Control group 2: the patients were orally administrated with the traditional Chinese medicine for treating ankylosing spondylitis prepared in the examples of CN102091137B twice a day in the morning and evening, and 3 months is a course of treatment. No other medications for ankylosing spondylitis is administered during the course of treatment. In particular, the traditional Chinese medicine for treating ankylosing spondylitis prepared in the examples of CN102091137B is prepared as following: weighing the raw materials that contain in the formula ,that is 10 g of rhizoma cibotii, 15 g of pilose antler, 10 g of dipsacus asper, 5 g of scorpio, 15 g of kudzu vine root, 12 g of chuanxiong rhizome, 5 g of caulis spatholobi, 15 g of white paeony root, 15 g of common peony root, 10g of safflower carthamus, 15 g of medicinal cyathula root and 10 g of white mustard seed, adding 1500 ml of water, decocting with slow fire to concentrate the medicine liquid to 250 ml, filtering dregs of a decoction and preparing a decoction. Table 8 Indicators for efficacy evaluation in this clinical trial [table] […] Table 9 Statistical results of clinical trial After taking three courses of treatment, all the patients in the three groups stopped taking medication, and whether the symptoms were aggravated or slowed down was observed one month, three months, and twelve months after pharmaceutical product withdrawal. If the symptoms after a period of drug withdrawal were more serious than the symptoms at the time of drug withdrawal, it was labeled as "-", otherwise labeled as "+". If there were two grades in the difference, it was labeled as […]. For example, if the therapeutic effect of patient A at the time of drug withdrawal was improved, and the therapeutic effect twelve months after drug withdrawal was Ineffective, it was labeled as "-2". Table 10 Statistical results of clinical trial after pharmaceutical product withdrawal

[3] = At the time of drug withdrawal (after three courses)
[4] = One course of treatment (3 months), oral twice a day, graded per Table 8
[5] = One month after drug withdrawal
[6] = Three courses of treatment, oral twice a day, graded per Table 8
[7] = Twelve months after drug withdrawal
[8] = three months after drug withdrawal

`O=P1(N(CCCl)CCCl)NCCCO1` (stereo not shown) [cp, cyclophosphamide] was tested, and the Number of micronucleus ([1]; Female mice) was 150, the “Micronucleus rate (‰)” value ([1]; Female mice) was 30.0* ‰ and the Number of micronucleus ([1]; Male mice) was 167. For the same compound, the “Micronucleus rate (‰)” value ([1]; Male mice) was 33.4* ‰, the “Number of abnormal sperms” value (male mice; 5000 sperms examined) was 487 and the “Rate of sperm abnormality (%)” value (male mice; P<0.01 vs negative control) was 9.74* %.

`CC(C(=O)O)c1ccc(CC2CCCC2=O)cc1` (stereo not shown) [loxoprofen sodium] gave a Cure [2, 3] of 0 case, an Effective [2, 3] of 36 case and an Improved [2, 3] of 3 case. For the same compound, the Ineffective [2, 3] was 61 case, the Cure [2, 4] was 0 case and the Ineffective [2, 4] was 82 case. For the same compound, the excellence [2, 4] was 0 case, the upturn [2, 4] was 18 case and the Cure [2, 5] was 0 case. For the same compound, the Effective [2, 5] was 31 case, the Improved [2, 5] was 2 case and the Ineffective [2, 5] was 67 case. It also gave a Cure [2, 6] of 0 case, an Ineffective [2, 6] of 61 case and an excellence [2, 6] of 3 case. It also gave an upturn [2, 6] of 36 case, a Cure [2, 7] of 0 case and an Effective [2, 7] of 9 case. For the same compound, the Improved [2, 7] was 0 case, the Ineffective [2, 7] was 91 case and the “course of the therapeutic effect after withdrawal (in words)” value ([2]; after three courses of treatment and then withdrawal) was “had more disease relapse”. It also gave a Cure [2, 8] of 0 case, an Effective [2, 8] of 20 case and an Improved [2, 8] of 0 case. The Ineffective [2, 8] was 80 case.

From patent EP3441077A1, “PHARMACEUTICAL PRODUCT FOR TREATING ANKYLOSING SPONDYLITIS AND COMBINED IMMUNE DEFECT, AND PREPARATION AND APPLICATION THEREOF” (Beijing Lu De Kai Qi Co., Ltd., priority 2016, dated 2017)
